# Measurements taken from BindingDB's records for doi:10.1016/j.bmcl.2008.06.095 (Tokyo University of Agriculture and Technology, 2008).
# Assay: Antagonist activity at VDR in human HL60 cells assessed as effect on 1,25-(OH)2-D3-induced cell differentiation by NBT assay
row,Compound,IC50 [nM]
1,"C=C1/C(=C\C=C2/CCC[C@]3(C)[C@@H]([C@H](C)C[C@H]4C[C@](C)(O)C(=O)N4CCCc4ccccc4)CC[C@@H]23)C[C@@H](O)C[C@@H]1O [(3S,5S)-5-((R)-2-((1R,3aS,7aR)-4-(2-((3S,5R)-3,5-dihydroxy-2-methylenecyclohexylidene)ethylidene)-7a-methyl-octahydro-1H-inden-1-yl)propyl)-3-hydroxy-3-methyl-1-(3-phenylpropyl)pyrrolidin-2-one]",2200
2,"C=C1/C(=C\C=C2/CCC[C@]3(C)[C@@H]([C@H](C)C[C@@H]4C[C@@](C)(O)C(=O)N4Cc4cc(OC)cc(OC)c4)CC[C@@H]23)C[C@@H](O)C[C@@H]1O [(3R,5R)-1-(3,5-dimethoxybenzyl)-5-((R)-2-((1R,3aS,7aR)-4-(2-((3S,5R)-3,5-dihydroxy-2-methylenecyclohexylidene)ethylidene)-7a-methyl-octahydro-1H-inden-1-yl)propyl)-3-hydroxy-3-methylpyrrolidin-2-one]",> 3000
3,"C=C1/C(=C\C=C2/CCC[C@]3(C)[C@@H]([C@H](C)C[C@H]4C[C@](C)(O)C(=O)N4Cc4cc(OCC)cc(OCC)c4)CC[C@@H]23)C[C@@H](O)C[C@@H]1O [(3S,5S)-1-(3,5-diethoxybenzyl)-5-((R)-2-((1R,3aS,7aR)-4-(2-((3S,5R)-3,5-dihydroxy-2-methylenecyclohexylidene)ethylidene)-7a-methyl-octahydro-1H-inden-1-yl)propyl)-3-hydroxy-3-methylpyrrolidin-2-one]",90
4,"C=C1/C(=C\C=C2/CCC[C@]3(C)[C@@H]([C@H](C)C[C@H]4C[C@](C)(O)C(=O)N4CCCCc4ccccc4)CC[C@@H]23)C[C@@H](O)C[C@@H]1O [(3S,5S)-5-((R)-2-((1R,3aS,7aR)-4-(2-((3S,5R)-3,5-dihydroxy-2-methylenecyclohexylidene)ethylidene)-7a-methyl-octahydro-1H-inden-1-yl)propyl)-3-hydroxy-3-methyl-1-(4-phenylbutyl)pyrrolidin-2-one]",390
5,"C=C1/C(=C\C=C2/CCC[C@]3(C)[C@@H]([C@H](C)C[C@H]4C[C@](C)(O)C(=O)N4Cc4ccccc4)CC[C@@H]23)C[C@@H](O)C[C@@H]1O [(3S,5S)-1-benzyl-5-((R)-2-((1R,3aS,7aR)-4-(2-((3S,5R)-3,5-dihydroxy-2-methylenecyclohexylidene)ethylidene)-7a-methyl-octahydro-1H-inden-1-yl)propyl)-3-hydroxy-3-methylpyrrolidin-2-one]",700
6,"C=C1/C(=C\C=C2/CCC[C@]3(C)[C@@H]([C@H](C)C[C@H]4C[C@](C)(O)C(=O)N4CCCc4cc(OC)cc(OC)c4)CC[C@@H]23)C[C@@H](O)C[C@@H]1O [(3S,5S)-5-((R)-2-((1R,3aS,7aR)-4-(2-((3S,5R)-3,5-dihydroxy-2-methylenecyclohexylidene)ethylidene)-7a-methyl-octahydro-1H-inden-1-yl)propyl)-1-(3-(3,5-dimethoxyphenyl)propyl)-3-hydroxy-3-methylpyrrolidin-2-one]",780
7,"C=C1/C(=C\C=C2/CCC[C@]3(C)[C@@H]([C@H](C)C[C@@H]4C[C@](C)(O)C(=O)N4Cc4cc(OC)cc(OC)c4)CC[C@@H]23)C[C@@H](O)C[C@@H]1O [(3S,5R)-1-(3,5-dimethoxybenzyl)-5-((R)-2-((1R,3aS,7aR)-4-(2-((3S,5R)-3,5-dihydroxy-2-methylenecyclohexylidene)ethylidene)-7a-methyl-octahydro-1H-inden-1-yl)propyl)-3-hydroxy-3-methylpyrrolidin-2-one]",> 3000
8,"C=C1/C(=C\C=C2/CCC[C@]3(C)[C@@H]([C@H](C)C[C@H]4C[C@](C)(O)C(=O)N4Cc4cc(OCCC)cc(OCCC)c4)CC[C@@H]23)C[C@@H](O)C[C@@H]1O [(3S,5S)-1-(3,5-dipropoxybenzyl)-5-((R)-2-((1R,3aS,7aR)-4-(2-((3S,5R)-3,5-dihydroxy-2-methylenecyclohexylidene)ethylidene)-7a-methyl-octahydro-1H-inden-1-yl)propyl)-3-hydroxy-3-methylpyrrolidin-2-one]",180
9,"C=C1/C(=C\C=C2/CCC[C@]3(C)[C@@H]([C@H](C)C[C@H]4C[C@](C)(O)C(=O)N4CCc4cc(OC)cc(OC)c4)CC[C@@H]23)C[C@@H](O)C[C@@H]1O [(3S,5S)-1-(3,5-dimethoxyphenethyl)-5-((R)-2-((1R,3aS,7aR)-4-(2-((3S,5R)-3,5-dihydroxy-2-methylenecyclohexylidene)ethylidene)-7a-methyl-octahydro-1H-inden-1-yl)propyl)-3-hydroxy-3-methylpyrrolidin-2-one]",860
10,"C=C1/C(=C\C=C2/CCC[C@]3(C)[C@@H]([C@H](C)C[C@H]4C[C@](C)(O)C(=O)N4Cc4cc(OC)cc(OC)c4)CC[C@@H]23)C[C@@H](O)C[C@@H]1O [(3S,5S)-1-(3,5-dimethoxybenzyl)-5-((R)-2-((1R,3aS,7aR)-4-(2-((3S,5R)-3,5-dihydroxy-2-methylenecyclohexylidene)ethylidene)-7a-methyl-octahydro-1H-inden-1-yl)propyl)-3-hydroxy-3-methylpyrrolidin-2-one]",300
11,"C=C1/C(=C\C=C2/CCC[C@]3(C)[C@@H]([C@H](C)C[C@H]4C[C@@](C)(O)C(=O)N4Cc4cc(OC)cc(OC)c4)CC[C@@H]23)C[C@@H](O)C[C@@H]1O [(3R,5S)-1-(3,5-dimethoxybenzyl)-5-((R)-2-((1R,3aS,7aR)-4-(2-((3S,5R)-3,5-dihydroxy-2-methylenecyclohexylidene)ethylidene)-7a-methyl-octahydro-1H-inden-1-yl)propyl)-3-hydroxy-3-methylpyrrolidin-2-one]",> 3000
12,"C=C1/C(=C\C=C2/CCC[C@]3(C)[C@@H]([C@H](C)C[C@H]4C[C@](C)(O)C(=O)N4CCc4ccccc4)CC[C@@H]23)C[C@@H](O)C[C@@H]1O [(3S,5S)-5-((R)-2-((1R,3aS,7aR)-4-(2-((3S,5R)-3,5-dihydroxy-2-methylenecyclohexylidene)ethylidene)-7a-methyl-octahydro-1H-inden-1-yl)propyl)-3-hydroxy-3-methyl-1-phenethylpyrrolidin-2-one]",194
13,"C=C1/C(=C\C=C2/CCC[C@]3(C)[C@@H]([C@H](C)C[C@H]4C[C@](C)(O)C(=O)N4Cc4cc(OCCCC)cc(OCCCC)c4)CC[C@@H]23)C[C@@H](O)C[C@@H]1O [(3S,5S)-1-(3,5-dibutoxybenzyl)-5-((R)-2-((1R,3aS,7aR)-4-(2-((3S,5R)-3,5-dihydroxy-2-methylenecyclohexylidene)ethylidene)-7a-methyl-octahydro-1H-inden-1-yl)propyl)-3-hydroxy-3-methylpyrrolidin-2-one]",540
